# Like-named read-outs stand apart in the source and are kept apart here. Marks after values point to notes of the source that are not given here.
# Assays:
# [1] = tested on: Colon 6044 (human colon carcinoma); assay: Antitumour activity in Co6044 after oral administration, different dosing schedules (Table 4); format: in vivo, mice; conditions: for Toxic deaths (d): 7 mice; for Optimum T/C [%] (on day): significant vs saline
# From the text: Antitumour Activity of Elaidic Acid (5′)-Gemcitabine Ester in Co6044 After Oral Administration
# [2] = Maximum tolerated dose, administration every third day repeated five times; format: in vivo, mice; conditions: administered every third day
# From the text: This is shown below by the experiments presented in table 1 and table 2 using different mice strains and also different human colon xenografts.
# [3] = tested on: Colon 6044 (human colon carcinoma)
# [4] = tested on: Colon 5776 (human colon carcinoma); assay: Antitumour activity in human colon cancer xenograft Co5776, IP treatment; conditions: for Toxic deaths (d): 8 NCR:nu/nu female mice; for Optimum T/C [%] (volume of treated tumour versus control tumour): significant vs saline; for antitumour activity in terms of reductions in tumor growth (in words): FIG. 1
# From the text: (§1) Human colon cancer Co5776 was inserted to Ncr:nu/nu female mice subcutaneously, and treatment started when tumors reached a mean volume of 100 mm^3.
# [5] = tested on: Co6044 (human colon carcinoma); assay: Antitumour activity in human colon cancer xenograft Co6044, IP treatment; conditions: for Toxic deaths (d): 8 mice; for Optimum T/C [%]: significant vs saline
# From the text: (§2) Treatment started when the tumors reached a mean volume of 100 mm^3.
# [6] = tested on: Colon 5776 (human colon carcinoma); conditions: mouse, in vivo, ip, 120 mg/kg
# From the text: as §1
# [7] = tested on: Co6044 (human colon carcinoma); conditions: mouse, in vivo, ip, 120 mg/kg
# From the text: as §2
# [8] = Oral 10 mg/kg, D 7, 10, 13, 16, 19
# [9] = Oral 15 mg/kg, D 7, 10, 13, 16, 19
# [10] = IP 40 mg/kg, D8, 11, 14, 17, 20
# [11] = IP 120 mg/kg, D8, 11, 14, 17, 20
structure (smiles),measurement,setting,value
"CCCCCCCC/C=C/CCCCCCCC(=O)OC[C@H]1O[C@@H](n2ccc(N)nc2=O)C(F)(F)[C@@H]1O [Elaidic acid (5′)-gemcitabine ester, elaidic acid (5′)-gemcitabine ester]",BWC [%],"[1]; Oral 5 mg/kg, D 7-11",−3%
same,Toxic deaths (d),"[1]; Oral 5 mg/kg, D 7-11",0
same,Optimum T/C [%] (on day),"[1]; Oral 5 mg/kg, D 7-11, optimum on day 28",10(28)* %
same,BWC [%],[1]; [8],−1%
same,Toxic deaths (d),[1]; [8],0
same,Optimum T/C [%] (on day),"[1]; Oral 10 mg/kg, D 7, 10, 13, 16, 19, optimum on day 24",35(24)* %
same,BWC [%],"[1]; Oral 10 mg/kg, D 7-11",−5%
same,Toxic deaths (d),"[1]; Oral 10 mg/kg, D 7-11",0
same,Optimum T/C [%] (on day),"[1]; Oral 10 mg/kg, D 7-11, optimum on day 17",8(17)* %
same,BWC [%],[1]; [9],−1%
same,Toxic deaths (d),[1]; [9],0
same,Optimum T/C [%] (on day),"[1]; Oral 15 mg/kg, D 7, 10, 13, 16, 19, optimum on day 24",27(24)* %
same,BWC [%],"[1]; Oral 20 mg/kg, D 7, 10, 13, 16, 19",−3%
same,Toxic deaths (d),"[1]; Oral 20 mg/kg, D 7, 10, 13, 16, 19, death on day 17",1(17)
same,Optimum T/C [%] (on day),"[1]; Oral 20 mg/kg, D 7, 10, 13, 16, 19, optimum on day 24",16(24)* %
same,BWC [%],"[1]; Oral 50 mg/kg, D 7, 14",0%
same,Toxic deaths (d),"[1]; Oral 50 mg/kg, D 7, 14",0
same,Optimum T/C [%] (on day),"[1]; Oral 50 mg/kg, D 7, 14, optimum on day 17",22(17)* %
same,BWC [%],"[1]; Oral 100 mg/kg, D 7, 14",−4%
same,Toxic deaths (d),"[1]; Oral 100 mg/kg, D 7, 14, death on day 20",1(20)
same,Optimum T/C [%] (on day),"[1]; Oral 100 mg/kg, D 7, 14, optimum on day 24",4(24)* %
same,activity after oral administration (in words),"[1]; oral, all tested schedules",High dose dependent activity
same,significance of antitumour activity (in words),"[1]; oral, all the tested schedules",Significant antitumour activity
same,maximum tolerated dose,[2],40 mg/kg per injection
same,BWC [%] D 13,"[3]; Oral 40 mg/kg, Q3 × 5, D 13",−7%
same,Toxic deaths (d),"[3]; Oral 40 mg/kg, Q3 × 5, deaths on day 15",2/8 (15)
same,Optimum T/C [%] (on day),"[3]; Oral 40 mg/kg, Q3 × 5, optimum on day 27, significant vs saline",5(27)* %
same,Optimum T/C [%] (on day),"[3]; Oral 60 mg/kg, Q3 × 5",Toxic
same,BWC [%] D 13,"[3]; Oral 60 mg/kg, Q3 × 5, D 13",−9%
same,Toxic deaths (d),"[3]; Oral 60 mg/kg, Q3 × 5, deaths days 12-24",6/8(12-24)
same,Optimum T/C [%] (on day),"[3]; Oral 80 mg/kg, Q3 × 5",Toxic
same,BWC [%] D 13,"[3]; Oral 80 mg/kg, Q3 × 5, D 13",−6%
same,Toxic deaths (d),"[3]; Oral 80 mg/kg, Q3 × 5, deaths days 16-22",6/8(16-22)
same,activity and tolerability when given orally (in words),"[3]; oral, 40 mg/kg",highly active and tolerable
same,BWC [%] (body weight change),[4]; [10],−4%
same,Toxic deaths (d),[4]; [10],0
same,Optimum T/C [%] (volume of treated tumour versus control tumour),[4]; [10],17* %
same,antitumour activity in terms of reductions in tumor growth (in words),[4]; IP 40 mg/kg,high antitumour activity
same,antitumor effect (in words),[5]; IP 40 mg/kg every third day for five times,Excellent antitumor effect
same,Toxic deaths (d),[5]; [10],0
same,BWC D 8-15 (body weight change),"[5]; IP 40 mg/kg, D8, 11, 14, 17, 20, D 8-15",−1
same,Optimum T/C [%],[5]; [10],19* %
"Nc1ccn([C@@H]2O[C@H](CO)[C@@H](O)C2(F)F)c(=O)n1 [Gemcitabine, 2′,2′-difluorodeoxycytidine, reference compound]",maximum tolerated dose,[2],approximately 120 mg/kg per injection
same,BWC [%] (body weight change),[6],−5%
same,BWC D 8-15 (body weight change),[7],−3
same,BWC [%] D 13,"[3]; mouse, in vivo, po, 120 mg/kg",−16%
same,BWC [%] D 13,"[3]; mouse, in vivo, po, 180 mg/kg",−22%
same,BWC [%] D 13,"[3]; mouse, in vivo, po, 240 mg/kg",−21%
same,Toxic deaths (d),"[4]; IP 120 mg/kg, D8, 11, 14, 17, 20, death on day 18",1(18)
same,Optimum T/C [%] (volume of treated tumour versus control tumour),[4]; [11],17* %
same,antitumour activity in terms of reductions in tumor growth (in words),[4]; IP 120 mg/kg,high antitumour activity
same,antitumor effect (in words),[5]; IP 120 mg/kg every third day for five times,Excellent antitumor effect
same,Toxic deaths (d),[5]; [11],0
same,Optimum T/C [%],[5]; [11],15* %

# Reference: patent US20070225248A1 (Clavis Pharma AS, priority 2006, published 2007)
